Legend:
Assay type in all cases: functional, cell-based
SW480 = assay: Antiproliferative activity against human SW480 cells assessed as reduction in cell viability incubated for 48 hrs by MTS assay; details: SW480, 48 h
MCF7 = assay: Antiproliferative activity against human MCF7 cells assessed as reduction in cell viability incubated for 48 hrs by MTS assay; details: MCF7, 48 h
HL-60 = assay: Antiproliferative activity against human HL60 cells assessed as reduction in cell viability incubated for 48 hrs by MTS assay; details: HL-60, 48 h
SMMC-7721 = assay: Antiproliferative activity against human SMMC7721 cells assessed as reduction in cell viability incubated for 48 hrs by MTS assay; details: SMMC-7721, 48 h
A549 = assay: Antiproliferative activity against human A549 cells assessed as reduction in cell viability incubated for 48 hrs by MTS assay; details: A549, 48 h

SMILES	IC50 (SW480) [µM]	IC50 (MCF7) [µM]	IC50 (HL-60) [µM]	IC50 (SMMC-7721) [µM]	IC50 (A549) [µM]
C[C@@H]1CC[C@@]2(OC1)O[C@H]1C[C@H]3[C@@H]4C[C@H](n5cc[n+](Cc6ccccc6Br)c5)[C@]56C[C@H]5CC[C@]6(C)[C@H]4CC[C@]3(C)[C@H]1[C@@H]2C	6.33	3.86	1.24	4.58	6.6
CC(C)CCC[C@@H](C)[C@H]1CC[C@H]2[C@@H]3C[C@H](n4cc[n+](CC(=O)c5ccccc5)c4)[C@]45C[C@H]4CC[C@]5(C)[C@H]3CC[C@]12C	6.06	6.98	1.53	1.29	7.28
CC(C)CCC[C@@H](C)[C@H]1CC[C@H]2[C@@H]3CC=C4C[C@@H](n5ccnc5)CC[C@]4(C)[C@H]3CC[C@]12C	> 20	> 20	> 20	> 20	> 20
C[C@@H]1CC[C@@]2(OC1)O[C@H]1C[C@H]3[C@@H]4CC=C5C[C@H](n6cc[n+](CC(=O)c7ccc8ccccc8c7)c6)CC[C@]5(C)[C@H]4CC[C@]3(C)[C@H]1[C@@H]2C	3.62	2.27	0.96	1.89	3.34
C[C@]12CC[C@H]3[C@@H](CC=C4C[C@@H](O)CC[C@@]43C)[C@@H]1CC[C@@H]2n1cc[n+](Cc2ccccc2Br)c1	> 20	9.61	6.3	7.63	> 20
C[C@]12CC[C@H](O)CC1=CC[C@@H]1[C@@H]2CC[C@]2(C)C(=O)CC[C@@H]12 [PRASTERONE]	> 20	> 20	> 20	> 20	> 20
CC(C)CCC[C@@H](C)[C@H]1CC[C@H]2[C@@H]3CC=C4C[C@H](n5c[n+](CC(=O)c6ccccc6)c6ccccc65)CC[C@]4(C)[C@H]3CC[C@]12C	10.2	7.18	0.88	1.65	7.51
C[C@@H]1CC[C@@]2(OC1)O[C@H]1C[C@H]3[C@@H]4CC=C5C[C@@H](O)CC[C@]5(C)[C@H]4CC[C@]3(C)[C@H]1[C@@H]2C [DISOGENIN]	> 20	> 20	> 20	> 20	> 20
COc1ccc(C(=O)C[n+]2ccn([C@H]3CC[C@H]4[C@@H]5CC=C6C[C@@H](OC(C)=O)CC[C@]6(C)[C@H]5CC[C@]34C)c2)cc1	6.06	3.46	2.2	4.31	10.7
CC(C)CCC[C@@H](C)[C@H]1CC[C@H]2[C@@H]3C[C@H](n4cc[n+](CC(=O)c5cccc(Br)c5)c4)[C@]45C[C@H]4CC[C@]5(C)[C@H]3CC[C@]12C	8.23	8.7	1.42	1.22	7.84
C[C@@H]1CC[C@@]2(OC1)O[C@H]1C[C@H]3[C@@H]4CC=C5C[C@H](n6c[n+](CC(=O)c7ccc8ccccc8c7)c7ccccc76)CC[C@]5(C)[C@H]4CC[C@]3(C)[C@H]1[C@@H]2C	1.75	1.67	1.1	1.33	1.32
CC(C)CCC[C@@H](C)[C@H]1CC[C@H]2[C@@H]3CC=C4C[C@@H](n5cc[n+](CC(=O)c6ccc7ccccc7c6)c5)CC[C@]4(C)[C@H]3CC[C@]12C	11.3	> 20	7.26	2.1	9.65
C[C@@H]1CC[C@@]2(OC1)O[C@H]1C[C@H]3[C@@H]4CC=C5C[C@H](n6c[n+](Cc7ccc8ccccc8c7)c7ccccc76)CC[C@]5(C)[C@H]4CC[C@]3(C)[C@H]1[C@@H]2C	1.8	2.31	1.02	0.88	1.25
C[C@]12CC[C@H]3[C@@H](CC=C4C[C@@H](O)CC[C@@]43C)[C@@H]1CC[C@@H]2n1ccnc1	> 20	> 20	> 20	> 20	> 20
C[C@@H]1CC[C@@]2(OC1)O[C@H]1C[C@H]3[C@@H]4CC=C5C[C@H](n6cc[n+](CC(=O)c7cccc(Br)c7)c6)CC[C@]5(C)[C@H]4CC[C@]3(C)[C@H]1[C@@H]2C	1.65	1.43	1.25	1.71	1.55
C[C@]12CC[C@H]3[C@@H](CC=C4C[C@@H](O)CC[C@@]43C)[C@@H]1CC[C@@H]2n1cc[n+](CC(=O)c2ccccc2)c1	> 20	> 20	> 20	> 20	> 20
CC(C)CCC[C@@H](C)[C@H]1CC[C@H]2[C@@H]3CC=C4C[C@H](n5cc[n+](CC(=O)c6ccccc6)c5)CC[C@]4(C)[C@H]3CC[C@]12C	9.03	8.41	6.85	1.49	8.42
C[C@@H]1CC[C@@]2(OC1)O[C@H]1C[C@H]3[C@@H]4C[C@H](n5cc[n+](CC(=O)c6ccccc6)c5)[C@]56C[C@H]5CC[C@]6(C)[C@H]4CC[C@]3(C)[C@H]1[C@@H]2C	7.39	5.5	2.69	7.38	7.76
COc1ccc(C(=O)C[n+]2ccn([C@H]3CC[C@@]4(C)C(=CC[C@H]5[C@@H]6CC[C@H]([C@H](C)CCCC(C)C)[C@@]6(C)CC[C@@H]54)C3)c2)cc1	10.7	8.71	7.97	1.52	8.75
Cc1cc2ncn([C@@H]3CC[C@@]4(C)C(=CC[C@H]5[C@@H]6C[C@@H]7O[C@]8(CC[C@@H](C)CO8)[C@@H](C)[C@@H]7[C@@]6(C)CC[C@@H]54)C3)c2cc1C	> 20	> 20	> 20	> 20	> 20
C[C@]12CC[C@H]3[C@@H](CC=C4C[C@@H](O)CC[C@@]43C)[C@@H]1CC[C@@H]2n1cc[n+](CC(=O)c2cccc(Br)c2)c1	9.78	7.25	6.42	14.9	> 20
C[C@@H]1CC[C@@]2(OC1)O[C@H]1C[C@H]3[C@@H]4C[C@H](n5cc[n+](CC(=O)c6cccc(Br)c6)c5)[C@]56C[C@H]5CC[C@]6(C)[C@H]4CC[C@]3(C)[C@H]1[C@@H]2C	6.46	5.21	1.28	7.28	7.03
CC(=O)O[C@H]1CC[C@@]2(C)C(=CC[C@H]3[C@@H]4CC[C@H](n5cc[n+](Cc6ccccc6Br)c5)[C@@]4(C)CC[C@@H]32)C1	6.87	4.84	1.48	3.83	6.52

From ChEMBL document CHEMBL4340516, “Synthesis and antitumor activity of novel steroidal imidazolium salt derivatives” (Eur J Med Chem, 2019)
